# Source: ChEMBL document CHEMBL5113404, “Design, synthesis and biological evaluation of new parbendazole derivatives for the treatment of HNSCC” (Eur J Med Chem, 2022)
# Active and inactive are the calls of the source. The calls are words filed in the database; no cut-off is given here.
# Assays:
# [1] = molecular target: Tubulin (Homo sapiens) (UniProt P68371+Q9H4B7+P0DPH7+P68366+Q13509+Q71U36+P04350+Q3ZCM7+P07437+P68363+Q9BQE3+Q6PEY2+Q13885+Q9BVA1+Q9BUF5); experiment: Inhibition of tubulin polymerization (unknown origin) at 20 micromol/L by fluorescence based analysis; assay type: protein-complex assay; conditions: dose 20.0 µmol/L
# [2] = Antiproliferative activity against human HN-6 cells assessed as cell growth inhibition incubated for 72 hrs by CCK-8 assay; assay type: functional, cell-based; conditions: HN-6, 72 h
# [3] = tested on: FaDu; experiment: Antiproliferative activity against human FaDu cells assessed as cell growth inhibition incubated for 72 hrs by CCK-8 assay; assay type: functional, cell-based
# [4] = tested on: CAL-27; experiment: Antiproliferative activity against human CAL-27 cells assessed as cell growth inhibition incubated for 72 hrs by CCK-8 assay; assay type: functional, cell-based; conditions: CAL-27, 72 h
# [5] = molecular target: Tubulin; experiment: Inhibition of tubulin polymerization (unknown origin) by fluorescence based analysis; assay type: protein-complex assay, Homo sapiens
# [6] = AUC (0 to t) in rat at 100 mg/kg,IG measured upto 24 hrs by HPLC analysis; assay type: ADME, organism-based; design: dose 100 mg/kg, time < 24 hrs, route ig; conditions: in vivo, po
# [7] = Acute toxicity in Kunming mouse assessed as adverse effect at 1 g/Kg,IG after 15 days of administration; conditions: in vivo, po, 1000 mg/kg, 360 h, time 15 day
# [8] = Induction of cell cycle arrest in human HN-6 cells assessed as accumulation of cells at S phase at 0.1 micromol/L incubated for 24 hrs by PI staining based flow cytometry analysi (reference value: 32.12%); assay type: functional; conditions: dose 0.1 µmol/L, at 0.1 µM
# [9] = tested on: HN-6; experiment: Induction of cell morphological changes in human HN-6 cells assessed as decrease in tubulin network around nucleus at 100 nmol/L incubated for 24 hrs by DAPI staining based confocal microscopy analysis; assay type: functional
# [10] = Tmax in rat at 100 mg/kg,IG measured upto 24 hrs by HPLC analysis; assay type: ADME, organism-based; conditions: in vivo, po
# [11] = Induction of apoptosis in human HN-6 cells assessed as late apoptotic cells at 1 micromol/L incubated for 24 hrs by Annexin-V/FITC-PI staining based flow cytometry analysis (reference value: 8.81%); assay type: functional; conditions: dose 1 µmol/L, at 1 µM
# [12] = Induction of apoptosis in human HN-6 cells assessed as late apoptotic cells at 0.1 micromol/L incubated for 24 hrs by Annexin-V/FITC-PI staining based flow cytometry analysis (reference value: 8.81%); assay type: functional; conditions: dose 0.1 µmol/L, at 0.1 µM
# [13] = tested on: HN-6; experiment: Inhibition of cell invasion in human HN-6 cells at 200 to 500 nmol/L incubated for 24 hrs by crystal violet staining based transwell assay; assay type: functional; conditions: dose 200-500 nmol/L
# [14] = Cytotoxicity against human HFF-1 clls assessed as reduction in cell viability incubated for 72 hrs by CCK-8 assay; assay type: toxicity, cell-based; conditions: HFF-1 cells
# [15] = Induction of cell cycle arrest in human HN-6 cells assessed as accumulation of cells at G1 phase at 0.1 micromol/L incubated for 24 hrs by PI staining based flow cytometry analysi (reference value: 45.33%); assay type: functional; conditions: dose 0.1 µmol/L, at 0.1 µM
# [16] = Induction of apoptosis in human HN-6 cells assessed as early apoptotic cells at 0.1 micromol/L incubated for 24 hrs by Annexin-V/FITC-PI staining based flow cytometry analysis (reference value: 2.04%); assay type: functional; conditions: dose 0.1 µmol/L, at 0.1 µM
# [17] = Induction of apoptosis in human HN-6 cells assessed as viable cells at 1 micromol/L incubated for 24 hrs by Annexin-V/FITC-PI staining based flow cytometry analysis (reference value: 97.26%); assay type: functional; conditions: HN-6, 24 h, dose 1 µmol/L, read-out: Activity
# [18] = Induction of apoptosis in human HN-6 cells assessed as viable cells at 0.1 micromol/L incubated for 24 hrs by Annexin-V/FITC-PI staining based flow cytometry analysis (reference value: 97.26%); assay type: functional; conditions: HN-6, 24 h, dose 0.1 µmol/L, read-out: Activity
# [19] = Acute toxicity in Kunming mouse assessed as death at 1 g/Kg,IG after 15 days of administration; conditions: in vivo, po, 1000 mg/kg, 360 h, time 15 day
# [20] = Acute toxicity in IG dosed Kunming mouse assessed as lethal dose after 15 days of administration; assay type: organism-based; conditions: in vivo, po, time 15 day
# [21] = Half life in rat at 100 mg/kg,IG measured upto 24 hrs by HPLC analysis; assay type: ADME, organism-based; conditions: in vivo, po
# [22] = Induction of cell cycle arrest in human HN-6 cells assessed as accumulation of cells at S phase at 0.1 micromol/L incubated for 24 hrs by PI staining based flow cytometry analysi (reference value: 31.19%); assay type: functional; conditions: dose 0.1 µmol/L, at 0.1 µM
# [23] = Cmax in rat at 100 mg/kg,IG measured upto 24 hrs by HPLC analysis; assay type: ADME, organism-based; design: dose 100 mg/kg, time < 24 hrs, route ig; conditions: in vivo, po
# [24] = Induction of apoptosis in human HN-6 cells assessed as early apoptotic cells at 1 micromol/L incubated for 24 hrs by Annexin-V/FITC-PI staining based flow cytometry analysis (reference value: 2.04%); assay type: functional; conditions: dose 1 µmol/L, at 1 µM
# [25] = Antimigratory activity in human HN-6 cells assessed as inhibition of cell migration at 0.1 micromol/L measured after 24 hrs by scratch wound assay based fluorescence microscope analysis; assay type: functional; conditions: HN-6, 24 h, dose 0.1 µmol/L
# [26] = Induction of apoptosis in human HN-6 cells assessed as necrotic cells at 1 micromol/L incubated for 24 hrs by Annexin-V/FITC-PI staining based flow cytometry analysis (reference value: 2.08%); assay type: functional; conditions: dose 1 µmol/L, at 1 µM
# [27] = Induction of apoptosis in human HN-6 cells assessed as necrotic cells at 0.1 micromol/L incubated for 24 hrs by Annexin-V/FITC-PI staining based flow cytometry analysis (reference value: 2.08%); assay type: functional; conditions: dose 0.1 µmol/L, at 0.1 µM
smiles,measurement,setting,value
CCCCc1ccc2nc(NC(=O)OCC(CC)CCCC)[nH]c2c1 (stereo not given),inhibition,[1],9.96%
same,IC50,[2],> 2000 nM
CCCCc1ccc2nc(NC(=O)NC3CCCC3)[nH]c2c1,inhibition,[1],32.3%
same,IC50,[2],745 nM
CCCCCCOC(=O)Nc1nc2ccc(CCCC)cc2[nH]1,inhibition,[1],0%
same,IC50,[2],> 2000 nM
CCCCc1ccc2nc(NC(=O)OCCCCl)[nH]c2c1,inhibition,[1],36.4%
same,IC50,[2],456 nM
COc1ccc(/C=C\c2cc(OC)c(OC)c(OC)c2)cc1O [COMBRETASTATIN A4],IC50,[3]; read-out: IC50,5.05 nM
same,IC50,[2],4.43 nM
same,IC50,[4],3.01 nM
CCCCc1ccc2nc(NC(=O)NC(C)C)[nH]c2c1,inhibition,[1],9.65%
same,IC50,[2],856 nM
CCCCc1ccc2nc(NC(=O)NCC)[nH]c2c1,inhibition,[1],0%
same,IC50,[2],187 nM
CCCCCCNC(=O)Nc1nc2ccc(CCCC)cc2[nH]1,inhibition,[1],12.5%
same,IC50,[2],1400 nM
CC(C)OC(=O)Nc1nc2cc(F)c(F)cc2[nH]1,inhibition,[1],12.6%
same,IC50,[2],1370 nM
CC(C)OC(=O)Nc1nc2ccc(C#N)cc2[nH]1,inhibition,[1],3.43%
same,IC50,[2],> 2000 nM
CCCCc1ccc2nc(NC(=O)NC3CCCCC3)[nH]c2c1,inhibition,[1],8.26%
same,IC50,[2],967 nM
CC(C)OC(=O)Nc1nc2ccc(C(F)(F)F)cc2[nH]1,inhibition,[1],4.37%
same,IC50,[2],1000 nM
CCCCCc1ccc2nc(NC(=O)OC(C)C)[nH]c2c1,inhibition,[1],100%
same,IC50,[3]; read-out: IC50,228 nM
same,IC50,[5],6.81 µM
same,IC50,[2],170 nM
same,IC50,[4],312 nM
COc1cc2c(c(OC)c1OC)-c1ccc(OC)c(=O)cc1[C@@H](NC(C)=O)CC2 [COLCHICINE],IC50,[3],22.8 nM
same,IC50,[2],19.5 nM
same,IC50,[4],37.5 nM
CCCCc1ccc2nc(NC(=O)OCCCl)[nH]c2c1,inhibition,[1],0%
same,IC50,[2],> 2000 nM
CCCCc1ccc2nc(NC(=O)NCCOC(=O)C(C)C)[nH]c2c1,inhibition,[1],0%
same,IC50,[2],1590 nM
CCCCc1ccc2nc(NC(=O)NCCc3ccccc3)[nH]c2c1,inhibition,[1],38.7%
same,IC50,[3]; read-out: IC50,775 nM
same,IC50,[2],429 nM
same,IC50,[4],499 nM
CCCCc1ccc2nc(NC(=O)Cc3ccccc3)[nH]c2c1,inhibition,[1],4.9%
same,IC50,[2],> 2000 nM
CCCCc1ccc2nc(NC(=O)OCC(C)C)[nH]c2c1,inhibition,[1],34.4%
same,IC50,[2],412 nM
CCCCc1ccc2nc(NC(=O)OCCC)[nH]c2c1,inhibition,[1],88.8%
same,IC50,[3]; read-out: IC50,284 nM
same,IC50,[5],5.34 µM
same,IC50,[2],254 nM
same,IC50,[4],252 nM
CC[C@]1(O)C[C@@H]2CN(CCc3c([nH]c4ccccc34)[C@@](C(=O)OC)(c3cc4c(cc3OC)N(C)[C@H]3[C@@](O)(C(=O)OC)[C@H](OC(C)=O)[C@]5(CC)C=CCN6CC[C@]43[C@@H]65)C2)C1 [VINBLASTINE],IC50,[3]; read-out: IC50,4.48 nM
same,IC50,[2],0.83 nM
same,IC50,[4],1.03 nM
CCCCc1ccc2nc(NC(=O)c3ccco3)[nH]c2c1,inhibition,[1],57.7%
same,IC50,[5],16.2 µM
same,IC50,[2],349 nM
CCCCCCCOC(=O)Nc1nc2ccc(CCCC)cc2[nH]1,inhibition,[1],0%
same,IC50,[2],> 2000 nM
CCCCc1ccc2nc(NC(=O)OCc3ccccc3)[nH]c2c1,inhibition,[1],10.5%
same,IC50,[2],> 2000 nM
CCCCc1ccc2[nH]c(NC(=O)OC)nc2c1 [PARBENDAZOLE],AUC(0-t) at 24 h,[6],403 ng·h/mL
same,Activity,[7],Non-Toxic
same,Activity,[8],16.02%
same,inhibition,[1],76.7%
same,Activity,[9],Active
same,Tmax,[10],4 h
same,Activity,[11],25.96%
same,Activity,[12],21.71%
same,IC50,[3]; read-out: IC50,160 nM
same,IC50,[5],9.55 µM
same,inhibition,[13],Active
same,IC50 at 72 h,[14],> 20 µM
same,Activity,[15],13.56%
same,Activity,[16],13.03%
same,viability at 1 µM,[17],51.8%
same,IC50,[2],102 nM
same,viability at 0.1 µM,[18],60.8%
same,Activity,[19],Non-Toxic
same,LD50 at 360 h,[20],> 1000 mg/kg
same,half-life,[21],130 min
same,Activity,[22],69.09%
same,IC50,[4],173 nM
same,Cmax,[23],141 ng/mL
same,Activity,[24],16.34%
same,inhibition at 0.1 µM,[25],12.8%
same,Activity,[26],5.94%
same,Activity,[27],4.46%
CCCCOC(=O)Nc1nc2ccc(CCCC)cc2[nH]1,inhibition,[1],44.1%
same,IC50,[2],254 nM
C=CCNC(=O)Nc1nc2ccc(CCCC)cc2[nH]1,inhibition,[1],8.4%
same,IC50,[3]; read-out: IC50,282 nM
same,IC50,[2],392 nM
same,IC50,[4],216 nM
CCCCc1ccc2nc(NC(=O)OC3CCCC3)[nH]c2c1,inhibition,[1],8.6%
same,IC50,[2],1690 nM
CCCCc1ccc2nc(NC(=O)OC(C)CC)[nH]c2c1 (stereo not given),inhibition,[1],99.7%
same,IC50,[3]; read-out: IC50,154 nM
same,IC50,[5],1.62 µM
same,IC50,[2],74.6 nM
same,IC50,[4],171 nM
CCCCc1ccc2nc(NC(=O)NC(C)(C)C)[nH]c2c1,inhibition,[1],9.79%
same,IC50,[2],> 2000 nM
Cc1ccc2nc(NC(=O)OC(C)C)[nH]c2c1,inhibition,[1],71.6%
same,IC50,[5],6.27 µM
same,IC50,[2],595 nM
CC(C)OC(=O)Nc1nc2ccc(F)cc2[nH]1,inhibition,[1],0.85%
same,IC50,[2],1470 nM
Cc1cc2nc(NC(=O)OC(C)C)[nH]c2cc1C,inhibition,[1],89.4%
same,IC50,[5],5.08 µM
same,IC50,[2],135 nM
CCCCc1ccc2nc(NC(=O)C3CCOCC3)[nH]c2c1,inhibition,[1],100%
same,IC50,[5],4.4 µM
same,IC50,[2],1180 nM
CCCCc1ccc2nc(NC(=O)NCCC)[nH]c2c1,inhibition,[1],2.99%
same,IC50,[2],549 nM
